This note sets out measurements from patent US12172988B2, “Anticancer and antifungal splice modulators” (priority 2021, dated 2024).

“Also recorded” adds a separate entry of the source. Read-outs that look alike come from different tables or passages of the source.

In this test the test system is HCT116 colorectal carcinoma cells. In words: MTS cell viability / cell growth inhibition assay. It counts as cell-based, human. To be noted: for GI50: Homo sapiens, HCT-116, 72 h. How it is done: With milligram quantities of 1a-1i at hand, we began our studies to evaluate the relative efficacy of each analogue using cell growth inhibition studies in HCT116 colorectal carcinoma cells. As reported in FIG. 3, GI50 values were collected for each analog after a 72 h treatment using the MTS cell viability assay (Table 12). Under these conditions, the natural FD-895 (1), 3S-FD-895 (1a) 17S-FD-895 (1d), 17-methoxy-FD-895 (1e) provided activities of <10 nM.
HCT-116 cells was cultured in McCoy's 5a (Life Technologies) supplemented with 10% fetal bovine serum (FBS), 2 mM L-glutamine, and 100 U mL^−1 of penicillin and 100 μg mL^−1 of streptomycin at 37° C. in an atmosphere of 5% CO2. Compounds were dissolved in DMSO (MilliporeSigma). Cells were treated with 1-1j in media with ≥0.5% DMSO for 4-72 h.
Studies were conducted in […] cell culture plates. HCT-116 plated at 5×10^3 cells/well were cultured for 24 h and then treated with analogs 1-1j for 4-72 h, then washed twice with 100 μL PBS. PBS (100 μL) was added to each well, followed by 20 μL of CellTiter Aqueous One Solution (Promega). After 2 h at 37° C., absorbance readings were taken at 490 nm (test wavelength) and 690 nm (reference wavelength). GI50 values were calculated in Prism (GraphPad) using greater 3 replicates.
Cells were treated with 1 or 1a-1j in media (McCoy's 5a (Life Technologies) supplemented with 10% FBS, 2 mM L-glutamine, and 100 U mL^−1 of penicillin and 100 μg mL^−1 of streptomycin 0.5% DMSO) for 4 h or 24 h. Untreated cells were considered were used as negative control. Total RNA was isolated using mirVana miRNA isolation kit (Life Technologies). A 1 μg sample of RNA was subjected to DNAseI from a TURBO DNA free kit (Life Technologies). The cDNA was prepared by using SuperScript III reverse transcriptase kit (Life Technologies). The amount of unspliced RNA for different genes was determined using Power SYBR Green PCR master mix (Applied Biosystems) by qPCR using specific primers for each gene. qPCR using 2.5 μM of each primer was performed on 5 ng of the obtained cDNA. qPCR conditions were as follows: 95° C. for 10 min for one cycle, then 95° C. for 10 min for one cycle, then 95° C. for 30 s, 55° C. for 60 s, 72° C. for 60 s, for 40 cycles using the MXPro. Quantification cycle (Cq) values were identified for each sample, and then RNA levels were calculated using 2-ΔΔCT method. GAPDH was used as a control for normalization. At least three replicates were conducted for each compound. Namely, all genes explored in this study were evaluated from the same cell cultures. Here, individual cultures were used for each compound explored and at least three replicates were used for each compound. While experimental variation occurred between the different compound treatments, the levels of the different intron retention, exon skipping or RNA expression were collected from the same cellular material. Statistics were calculated using a standard one-way ANOVA; p values were represented so that * signifies p<0.0001. HCT116 were treated with analogs 1-1j ranging from 0.1-5000 nM for 72 hours, then cell viability was measured using the MTS assay. GI50 values and confidence intervals were calculated using GraphPad (Table 12).

In the case of `CC[C@H](OC)[C@@H](C)[C@H]1O[C@@H]1[C@@H](O)[C@H](C)/C=C/C=C(\C)[C@H]1OC(=O)C[C@H](O)CC[C@@](C)(O)[C@@H](OC(C)=O)/C=C/[C@@H]1C` [Analog 1d, 17S-FD-895], the “cell growth inhibitory activity compared to FD-895” value (HCT-116 cells) is reported as “retained potency; also recorded: comparable inhibitor of cell growth as 1”. For the same compound, the GI50 was 0.00206 µM (read-out: GI50 value) and less than 0.01 µM (read-out: GI50 value (text)).

For `CC[C@H](OC)[C@@H](C)[C@H]1O[C@@H]1[C@@H](O)[C@H](C)/C=C/C=C(\C)[C@H]1OC(=O)C[C@@H](O)CC[C@@](C)(O)[C@@H](OC(C)=O)/C=C/[C@@H]1C` [Analog 1g, 3S,17S-FD-895], the “fold less effective compared to 1a or 1d” value (HCT116 GI50, compared to 1a or 1d) turned out to be 60 fold. Besides, under “HCT116 cell growth inhibition, compared to 1”, the “fold less active (GI50) than 1” value is given as 75 fold. Besides, the GI50 (read-out: GI50 value) stood at 0.131 µM and the GI50 (read-out: GI50 value (text)) was determined as 0.13 µM.

`CC[C@@H](OC)[C@H](C)[C@H]1O[C@@H]1[C@@H](O)[C@H](C)/C=C/C=C(\C)[C@H]1OC(=O)C[C@H](O)CC[C@@](C)(O)[C@@H](OC(C)=O)/C=C/[C@@H]1C` [Analog 1j, 17S,20S,21R-FD-895]: the GI50 (read-out: GI50 value) came to 0.262 µM and the GI50 (read-out: GI50 value (text)) was 0.26 µM.

Consider `CC[C@H](OC)[C@@H](C)[C@@H]1O[C@H]1[C@@H](O)[C@H](C)/C=C/C=C(\C)[C@H]1OC(=O)C[C@H](O)CC[C@@](C)(O)[C@@H](OC(C)=O)/C=C/[C@@H]1C` [Analog 1i, 17S,18S,19S-FD-895], for which the GI50 (read-out: GI50 value) was found to be 0.446 µM and the GI50 (read-out: GI50 value (text)) is 0.45 µM.
